Experimental findings from patent US9770026B2, “Substituted pyrimidine compound and uses thereof” (Shenyang Sinochem Agrochemicals R&D Co., Ltd., priority 2012, dated 2017) are described below.

For one assay, the system named is corn rust. Put plainly: protectant activity in vivo against corn rust.
The next assay has as its system armyworm. Put plainly: bioactivity test against armyworm, airbrush spray. It counts as in vivo. Particulars: for control (test results against armyworm): mortality after 72 h.
For another assay, the system named is carmine spider mite. Put plainly: bioactivity test against carmine spider mite, airbrush spray. It counts as in vivo. Particulars: for Insecticidal activity against carmine spider mite (% ): contrastive test; for control against carmine spider mite: mortality after 72 hrs. In short, it runs like this:
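Broadbean seedlings infested with adult mites were sprayed with compound (acetone/methanol stock diluted in 0.1% Tween 80 water) by airbrush at 0.7 kg/cm^2, 0.5 ml. Three replicates were run. Mortality was scored after 72 hrs.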

The next assay relates to wheat powdery mildew. Briefly: protectant activity in vivo against wheat powdery mildew. The settings on record: 400 ppm.
The next assay relates to cucumber downy mildew. Put plainly: protectant activity in vivo against cucumber downy mildew. Particulars: for control effect against cucumber downy mildew (%): protectant activity.
Another assay concerns Diamond back moth. Briefly: insecticidal activity against diamond back moth, airbrush spray. Particulars: for control (test results against diamond back moth): mortality after 72 hrs. It counts as in vivo. In short, it runs like this: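 Airbrush leaf-disc spray test: both faces of 2 cm cabbage discs received 0.5 ml of test solution at 0.7 kg/cm^2. Solutions were made in acetone:methanol (1:1) and brought to concentration with 0.1% Tween 80 in water. Ten second-instar larvae per disc, triplicates, were held at 25° C and 60˜70% R.H., with mortality recorded at 72 hrs.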

Assay [1] has as its system Green peach aphids (Myzus Persicae Sulzer). Briefly: bioactivity test against green peach aphid, airbrush foliar spray. It counts as in vivo. Particulars: for Insecticidal activity against peach aphid (%): contrastive test; for control (test results against green peach aphid): death rate after 48 hrs. In short, it runs like this:
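Death rate was scored at 48 hrs, held at 25±1 C and 60±5% RH, following airbrush foliar spray (0.5 mL, 10 psi) onto cabbage leaf discs bearing about 15-30 aphids. Test solutions: compound dissolved in 1:1 acetone:methanol, brought to concentration with 0.1% tween 80 water.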

For the molecule `CCc1ncnc(NCCc2ccc(Oc3ccccc3)nc2)c1Cl` [III-181], in the assay on corn rust (400 ppm), the “protectant activity against corn rust in vivo” value is on record as 100%. Also, the “control (test results against armyworm)” value with armyworm (600 ppm) was 100%. For the same molecule, the “Insecticidal activity against carmine spider mite (% )” value in the assay with carmine spider mite (100 mg/L) and in the assay on carmine spider mite (600 mg/L) was 100% each time. In addition, the “control against carmine spider mite” value in the assay on carmine spider mite (100 ppm) and in the assay with carmine spider mite (600 ppm) was 100% in each case. The “protectant activity against wheat powdery mildew in vivo” value in the assay on wheat powdery mildew was 100%. For the same molecule, the “control effect against cucumber downy mildew (%)” value (“control effect … (%)” below) with cucumber downy mildew (25 mg/L), in the assay on cucumber downy mildew (50 mg/L), in the assay with cucumber downy mildew (100 mg/L) and in the assay on cucumber downy mildew (400 mg/L) was 100% in each case. Moreover, the “protectant activity against cucumber downy mildew in vivo” value in the assay with cucumber downy mildew (25 ppm), with cucumber downy mildew (50 ppm), with cucumber downy mildew (100 ppm) and in the assay on cucumber downy mildew (400 ppm) was 100% in each case. Also, the “control (test results against diamond back moth)” value with Diamond back moth (600 ppm) is given as 100%. Moreover, the “Insecticidal activity against peach aphid (%)” value in assay [1] (10 mg/L), in assay [1] (100 mg/L) and in assay [1] (600 mg/L) was 100% each time. For the same molecule, the “control (test results against green peach aphid)” value in assay [1] (10 ppm), in assay [1] (100 ppm) and in assay [1] (600 ppm) was 100% in each case.

As for `CCc1ncnc(NCCc2ccc(Oc3ccc(C)cc3)nc2)c1Cl` [III-196], the “protectant activity against corn rust in vivo” value with corn rust (400 ppm) turned out to be 100%. For the same molecule, the “control (test results against armyworm)” value in the assay with armyworm (600 ppm) is recorded as 100%. Besides, the “control against carmine spider mite” value in the assay with carmine spider mite (600 ppm) stood at 100%. In addition, the “protectant activity against wheat powdery mildew in vivo” value in the assay on wheat powdery mildew is 100%. The “control effect … (%)” value with cucumber downy mildew (6.25 mg/L) worked out at 85%; with cucumber downy mildew (12.5 mg/L), 85%; in the assay with cucumber downy mildew (25 mg/L) it was 100%; in the assay with cucumber downy mildew (50 mg/L) it was 100%; in the assay on cucumber downy mildew (100 mg/L) it was 100%; in the assay on cucumber downy mildew (400 mg/L), 100%. The “protectant activity against cucumber downy mildew in vivo” value with cucumber downy mildew (25 ppm), in the assay on cucumber downy mildew (50 ppm), in the assay on cucumber downy mildew (100 ppm) and in the assay with cucumber downy mildew (400 ppm) was 100% throughout. In addition, the “Insecticidal activity against diamond back moth (%)” value with Diamond back moth (100 mg/L) and in the assay with Diamond back moth (600 mg/L) was 100% in each case. Further, the “control (test results against diamond back moth)” value with Diamond back moth (100 ppm) and in the assay on Diamond back moth (600 ppm) was 100% throughout. In addition, the “control (test results against green peach aphid)” value in assay [1] (100 ppm) and in assay [1] (600 ppm) was 100% each time.

Turning to `CCc1ncnc(NCCc2ccc(Oc3ccc(OC)cc3)nc2)c1Cl` [III-199], in the assay on corn rust (400 ppm), the “protectant activity against corn rust in vivo” value is 100%. Moreover, the “Insecticidal activity against armyworm (%)” value in the assay with armyworm (10 mg/L) is recorded as 64%; with armyworm (100 mg/L), 100%; in the assay on armyworm (600 mg/L), 100%. The “control (test results against armyworm)” value in the assay with armyworm (100 ppm) and in the assay with armyworm (600 ppm) was 100% in each case. The “Insecticidal activity against carmine spider mite (% )” value in the assay on carmine spider mite (10 mg/L) stood at 87%; in the assay on carmine spider mite (100 mg/L), 100%; in the assay with carmine spider mite (600 mg/L) it was 100%. Also, the “control against carmine spider mite” value in the assay on carmine spider mite (100 ppm) and in the assay with carmine spider mite (600 ppm) was 100% throughout. Moreover, the “protectant activity against wheat powdery mildew in vivo” value in the assay on wheat powdery mildew is on record as 100%. Besides, the “protectant activity against cucumber downy mildew in vivo” value in the assay on cucumber downy mildew (100 ppm) and with cucumber downy mildew (400 ppm) was 100% in each case. Further, the “control (test results against diamond back moth)” value in the assay with Diamond back moth (600 ppm) is given as 100%. For the same molecule, the “control (test results against green peach aphid)” value in assay [1] (100 ppm) and in assay [1] (600 ppm) was 100% in each case.

With `CCc1ncnc(NCCc2ccc(Oc3cccc(C(F)(F)F)c3)nc2)c1Cl` [III-201], the “protectant activity against corn rust in vivo” value in the assay on corn rust (100 ppm) and with corn rust (400 ppm) was 100% throughout. The “control (test results against armyworm)” value in the assay on armyworm (600 ppm) is given as 100%. In addition, the “control against carmine spider mite” value with carmine spider mite (600 ppm) is 100%. In addition, the “protectant activity against wheat powdery mildew in vivo” value with wheat powdery mildew was found to be 100%. Further, the “control effect … (%)” value worked out at 98% in the assay on cucumber downy mildew (12.5 mg/L); 100% in the assay on cucumber downy mildew (25 mg/L); 100% with cucumber downy mildew (50 mg/L); 100% with cucumber downy mildew (100 mg/L); 100% in the assay with cucumber downy mildew (400 mg/L). In addition, the “protectant activity against cucumber downy mildew in vivo” value with cucumber downy mildew (25 ppm), in the assay on cucumber downy mildew (50 ppm), with cucumber downy mildew (100 ppm) and with cucumber downy mildew (400 ppm) was 100% throughout. Moreover, in the assay with Diamond back moth (600 ppm), the “control (test results against diamond back moth)” value is reported as 100%. Also, the “control (test results against green peach aphid)” value in assay [1] (100 ppm) and in assay [1] (600 ppm) was 100% in each case.

Consider `FC(F)c1ncnc(NCCc2ccc(Oc3ccccc3)nc2)c1Cl` [III-541], for which the “protectant activity against corn rust in vivo” value in the assay with corn rust (400 ppm) was determined as 100%. Besides, in the assay with armyworm (600 ppm), the “control (test results against armyworm)” value came out at 100%. The “control against carmine spider mite” value in the assay on carmine spider mite (600 ppm) came to 100%. Further, the “protectant activity against wheat powdery mildew in vivo” value in the assay on wheat powdery mildew was 100%. For the same molecule, the “control effect … (%)” value in the assay with cucumber downy mildew (3.125 mg/L) is on record as 95%; in the assay on cucumber downy mildew (6.25 mg/L), 100%; with cucumber downy mildew (12.5 mg/L), 100%; with cucumber downy mildew (25 mg/L) it was 100%; in the assay with cucumber downy mildew (50 mg/L), 100%; in the assay on cucumber downy mildew (100 mg/L), 100%. In addition, the “control effect … (%)” value in the assay on cucumber downy mildew (400 mg/L) is on record as 100%. In addition, the “protectant activity against cucumber downy mildew in vivo” value in the assay on cucumber downy mildew (6.25 ppm), in the assay on cucumber downy mildew (12.5 ppm), with cucumber downy mildew (25 ppm), in the assay on cucumber downy mildew (50 ppm), in the assay on cucumber downy mildew (100 ppm) and with cucumber downy mildew (400 ppm) was 100% in each case. Besides, in the assay on Diamond back moth (600 ppm), the “control (test results against diamond back moth)” value worked out at 100%. Besides, the “control (test results against green peach aphid)” value in assay [1] (100 ppm) and in assay [1] (600 ppm) was 100% in each case.
